“Also recorded” adds a separate entry of the source. Read-outs that look alike come from different tables or passages of the source.
Key:
[1] = test system: Plasmodium falciparum 3D7 (chloroquine-sensitive); test: In vitro drug susceptibility assay, 3D7 strain (flow cytometry, SYBR Green I / MitoTracker Deep Red); format: cell-based; details: read-out: IC50 ± SD Pf3D7
Method: (§1) The cultures were maintained under an atmosphere of 5% CO2, 5% O2, and 90% N2. Fresh complete medium was provided daily, and rapid-stained (Panotico) blood smears were examined.
(§2) To evaluate the effects of synthetic compounds on the intraerythrocytic development of P. falciparum, we analyzed parasitemia by flow cytometry with 0.3% initial parasitemia and 1% hematocrit in the assay. Plates were incubated with the compounds at concentrations ranging from 0.10 to 100 µM for 72 h. Dual staining with SYBR Green I (SG-I) (Invitrogen, Waltham, MA, USA) and MitoTracker Deep Red (MT-Red) (Invitrogen) were used to label nucleic acids and mitochondria, respectively. Approximately 10,000 cells were counted by an Accuri C6 (Becton Dickinson, San Jose, CA, USA) and analyzed by FlowJo 5 software. Parasitemia was determined from the analysis of dot plots (side scatter versus fluorescence).
(§3) We determined the susceptibility of P. falciparum to the indole compounds and investigated whether CQR parasites responded differently to the compounds. […] We determined the IC50 values for each compound by analyzing viable and non-viable parasites after compound treatment, represented in dot plots (Figure 1H).

[2] = test system: Plasmodium falciparum Dd2 (chloroquine-resistant); test: In vitro drug susceptibility assay, Dd2 strain (flow cytometry, SYBR Green I / MitoTracker Deep Red); format: cell-based; details: read-out: IC50 ± SD PfDd2
Method: as §1, §2, §3

Cytotoxicity assay (MTT) = format: cell-based, human; details: human, HEK293T (HEK293) cells, 0.10-100 µM, read-out: CC50 ± SD HEK293
Method: HEK293T (human embryonic kidney) cells were cultured in 75 cm^2 vented tissue culture flasks (Greiner Bio-One, Frickenhausen, Germany) at 37 °C in a humidified atmosphere containing 5% CO2 in Dulbecco’s modified […] (Gibco) supplemented with 10% (v/v) fetal bovine serum (Gibco), 100 U/mL penicillin, and 100 μg/mL streptomycin (Sigma). Cytotoxicity was evaluated with the 4,5-dimethylthiazol-2-yl-2,5-diphenyltetrazolium bromide (MTT) cell proliferation assay. Briefly, 10^4 cells/well were seeded in flat-bottom 96-well plates in complete DMEM medium for 24 h, followed by incubation with different concentrations of each compound (0.10–100 µM) for 72 h. DMSO (0.13%) and digitonin were used as the negative and positive controls, respectively. The concentrations of DMSO chosen as control were the concentration present in the tested compounds (from 0.0001% to 0.12%, two-fold dilution). After 72 h, cells were then incubated with the MTT reagent for 3 h, and absorbance was measured at 570 nm using a FlexStation® 3 Multi-Mode Microplate Reader (Molecular Devices, Sunnyvale, CA, USA). Moreover, we calculated the selectivity indexes (SI) to understand whether the compounds were more toxic to parasites than cells, or vice versa, according to the ratio of the CC50 value to the IC50 value for each compound.
We further assessed the toxicity of 2-sulfenylindole compounds against HEK293 cells using the MTT assay with different concentrations of the compounds for 72 h. Table 1 presents all the toxicity data and summarizes the IC50 values of the compounds evaluated in this study for Dd2 and 3D7 strains.

[3] = test system: P. falciparum 3D7 parasites; test: Effect of 2-sulfenylindoles in combination with 100 nM melatonin on parasitemia; format: cell-based, Plasmodium falciparum; details: 3D7, 48 h; for Parasitemia (%) Treatment with compound (500nM) + Melatonin (100nM): normalized to DMSO control
Method: (§4) To evaluate the role of the compounds in parasitemia, 1% 3D7 parasites in 2% hematocrit were incubated for 48 h with 500 nM of the 2-sulfenylindole derivatives. Melatonin (100 nM) was used as a positive control, and DMSO (0.0013% v/v) was used as a negative control. The concentration of DMSO chosen as control was the concentration present in the tested compounds at 500 nM. The activity of the compounds was measured by SG-I and MT-Red staining. The data obtained were normalized to those of the control (DMSO). Additionally, to test the ability of the compounds to affect melatonin activity in parasitemia, 3D7 parasites were incubated with 500 nM indole compounds along with 100 nM melatonin for 48 h.
Following the assumption that compounds resembling melatonin structure might interact through the melatonin signaling pathways, we evaluated the effect of the compounds on melatonin action on parasitemia. Our next step was to study the combination of 2-sulfenylindoles with melatonin in asynchronous 3D7 by incubating parasites simultaneously with 100 nM melatonin and 500 nM of each compound.

P. falciparum 3D7 strain = test: Blood-stage development evaluation by microscopy; format: cell-based, Plasmodium falciparum; details: ring-stage synchronized 3D7, treated at IC50 (30 µM for 20 and 28), monitored every 12 h
Method: Ring-stage parasites (10–14 h) at 1% parasitemia in 2% hematocrit were treated with compound 20 and compound 28 at concentrations of 1 and 30 µM in 24-well plates for 48 h. Treatment with chloroquine (20 nM) and DMSO (0.1%) was used as positive and negative controls. Smears were rapid stained (Panotico) every 12 h after treatment (12, 24, 36, 48, and 60 h time points), and we took images of parasites to assess the blood-stage development (Zeiss, Oberkochen, Germany).
During monitoring, parasites continued to develop throughout the cycle in the presence of both compounds. […] To examine its stage specificity, we monitored development every 12 h.
Figure 5 Parasitemia reduction with compound 20 (A) and compound 28 (B) to determine the stage activity. Data are means ± SD. Ring-stage synchronized parasites with sorbitol 5% were treated with chloroquine (20 nM), compound 20 (30 µM), and compound 28 (30 µM). The chosen treatment concentration was the IC50 values obtained for these compounds against the 3D7 parasites. (C) After drug administration, smears of P. falciparum 3D7 strain were taken at 0, 12, 24, 36, 48, and 60 h after drug administration, observing the growth development of treated parasites. * p ≤ 0.05, ** p ≤ 0.01, *** p ≤ 0.001.

[4] = test system: P. falciparum 3D7 parasites; test: Effects of indole derivatives (500 nM) on parasitemia; format: cell-based, Plasmodium falciparum; details: for effect on parasitemia (in words): 500 nM compound alone, 3D7 asynchronous, 48 h; for activity at 0.5 µM: Plasmodium falciparum, normalized to DMSO control, read-out: Parasitemia (%) Treatment with compound (500nM); for activity at 0.5 µM / decrease in parasitemia / increase in parasitemia: 3D7, 48 h; for decrease in parasitemia / increase in parasitemia: 500 nM compound; for decrease in parasitemia: compared to DMSO control; for increase in parasitemia: compared to DMSO control (100.6%)
Method: as §4
After incubation, the final parasitemia was determined using flow cytometry.

[5] = Plasmodium falciparum, 3D7, 72 h, asynchronous parasites, 72 h, 0.1-100 µM
[6] = asynchronous parasites, 72 h, 0.1-100 µM
[7] = 500 nM compound + 100 nM melatonin
[8] = Plasmodium falciparum, DD2, 72 h, asynchronous parasites, 72 h, 0.1-100 µM

Structure (SMILES)	IC50 ([1]; Plasmodium falciparum, 3D7, 72 h)	IC50 ([2]; Plasmodium falciparum, DD2, 72 h)	CC50 at 72 h (Cytotoxicity assay (MTT))	IC50 [1, 5]	IC50 [1, 6]	effect on melatonin action on parasitemia (in words) [3, 7]	Parasitemia (%) Treatment with compound (500nM) + Melatonin (100nM) [3]	IC50 [2, 8]	IC50 [2, 6]	stage-specific effect on blood-stage development (P. falciparum 3D7 strain)	effect on parasitemia (in words) [4]	activity at 0.5 µM [4]	increase in parasitemia compared to control group ([3]; 500 nM compound + 100 nM melatonin, versus control group (100.7%))	decrease in parasitemia [4]	increase in parasitemia [4]
CCN(CC)CCCC(C)Nc1ccnc2cc(Cl)ccc12 (stereo not shown) [Chloroquine, reference compound]	0.0223 ± 0.00417 µM	0.199 ± 0.0262 µM													
COC(=O)Cc1c(Sc2ccccc2)[nH]c2ccccc12 [Compound 3]			15.2 ± 1.36 µM	< 20 µM	10.6 ± 5.19 µM	slight increase in parasitemia	129.8 ± 6.78%	< 20 µM	18 ± 1.72 µM	reduced the progress from rings to trophozoites; also recorded: affect ring to trophozoite progression	no increase was observed	98.2 ± 2.28%			
COC(=O)Cc1c(Sc2cccc(O)c2)[nH]c2ccccc12 [Compound 7]			31.6 ± 4.03 µM	58.2 ± 2.45 µM			122.9 ± 5.60%	55.4 ± 2.96 µM				96.5 ± 2.39%	22.2%	4.05%	
COC(=O)Cc1c(Sc2ccccc2C(=O)O)[nH]c2ccccc12 [Compound 8]			> 100 µM	37.3 ± 3.58 µM			133.5 ± 8.06%	43.3 ± 6.51 µM				102 ± 1.71%			
COC(=O)Cc1c(Sc2ncccn2)[nH]c2ccccc12 [Compound 10]			> 100 µM	54.9 ± 2.25 µM			130.2 ± 6.02%	43.6 ± 3.06 µM				101 ± 2.14%			
COC(=O)Cc1c(SCc2ccccc2)[nH]c2ccccc12 [Compound 14]			23.7 ± 8.54 µM	20.9 ± 2.97 µM			128.5 ± 4.13%	37.1 ± 7.66 µM				97.8 ± 3.41%			
COC(=O)Cc1c(SC(C)(C)C)[nH]c2ccccc12 [Compound 16]			26.5 ± 8.7 µM	31.7 ± 5.09 µM			127.4 ± 4.10%	48.5 ± 2.88 µM			led to an increase in parasitemia	112 ± 1.76%			11.2%
CCSc1[nH]c2ccccc2c1CC(=O)OC [Compound 17]			26.5 ± 4.67 µM	25 ± 2.9 µM			123.6 ± 3.11%	35.4 ± 1.56 µM			did not affect parasitemia	98.6 ± 2.95%			
COC(=O)Cc1c(SC23CC4CC(CC(C4)C2)C3)[nH]c2ccccc12 [Compound 18]			16.8 ± 2.63 µM	< 20 µM	13.5 ± 3.24 µM		113.9 ± 2.90%	< 20 µM	15.7 ± 4.87 µM	reduced the progress from rings to trophozoites; also recorded: affect ring to trophozoite progression		98 ± 2.61%			
COC(=O)Cc1c(SCCCCO)[nH]c2ccccc12 [Compound 19]			28.1 ± 5.46 µM	27.8 ± 2.03 µM			118.5 ± 2.85%	39.9 ± 1.61 µM				100 ± 1.81%			
CCCCCCCCCCCCSc1[nH]c2cc(Cl)ccc2c1CC(=O)OC [Compound 21]			> 100 µM	< 20 µM	19.1 ± 1.78 µM		111.9 ± 2.78%	< 20 µM	16.9 ± 4.66 µM		led to an increase in parasitemia	104.4 ± 1%			3.8%
COC(=O)Cc1c(Sc2ccccc2)[nH]c2ccc(OC)cc12 [Compound 25]			13.1 ± 3.74 µM	26.5 ± 4.87 µM		did not potentiate or block the effect of melatonin on parasitemia	112.8 ± 2.93%	45.5 ± 4.84 µM			led to an increase in parasitemia	107 ± 2.46%			6.6%
c1ccc(Cc2c(Sc3ccccc3)[nH]c3ccccc23)cc1 [Compound 26]			34.7 ± 8.44 µM	< 20 µM	13.5 ± 2.37 µM		110.4 ± 3.18%	35.8 ± 4.64 µM		reduced the progress from rings to trophozoites; also recorded: affect ring to trophozoite progression		92.7 ± 4.17%		7.94%	
